Reference: US7122530B2, “24-hydroxyvitamin D, analogs and uses thereof” (Genzyme Corporation, priority 1998, dated 2006)

Tests used:
[1] = system: cytotoxic thymus-derived lymphocyte (CTL) activity; assay: Immunological testing: CTL activity in mice immunized with allogeneic P815 tumor cells; type: in vivo, C57BL/6 mice; conditions: both tests: 5 micrograms daily i.p., or 10 micrograms i.p. twice; assay 10 days after immunization
Protocol: Female C57BL/6 mice are used between the ages of 9–12 weeks. Mice are given food and water ad libitum and are kept in a 12-hour light and 12-hour dark cycle.
A known balanced salt solution (BSS) is prepared and supplemented to 0.01 molar with HEPES buffer.
The test compound, 24-OH-D2, is dissolved in dimethylsulfoxide at final concentrations of 0.2 or 0.4 mg per ml. When working with vitamin D compounds, conditions of reduced lighting were employed.
Mice are apportioned at 4 per group and are inoculated intraperitoneally with 3×10^6 allogeneic P815 tumor cells and the resulting cytotoxic thymus-derived lymphocyte (CTL) activity is assessed 10 days later. Mice are treated by the intraperitoneal route with 25 microliters of test compound dissolved in dimethylsulfoxide or with dimethylsulfoxide only (vehicle control). […]
Ten days after immunization of mice with P815 cells, single spleen cell suspensions are prepared by passage of spleens through a steel mesh into BSS and are subsequently washed twice with BSS. […] Cytotoxic T lymphocyte activity is determined individually on spleen cells from each animal in each group and the results are expressed as the mean CTL activity (as percent specific Cr release) of each group ± the standard deviation.

[2] = system: renal patients with secondary hyperparathyroidism; assay: Clinical trial of 24-OH-D2 for secondary hyperparathyroidism in end stage renal disease; type: in vivo, human
Protocol: Thirty renal patients are enrolled in a clinical trial to study secondary hyperparathyroidism. The patients show baseline iPTH levels greater than 1000 pg/mL. An initial dose of 24-OH-D2 (50 μg 3 times/week) is increased (maximum, 100 μg 3 times/ week) or decreased as necessary to attain and maintain iPTH in the range of 150–300 pg/mL. After 11–12 weeks of treatment, the iPTH levels of the patients decrease to below 1000 pg/mL, and in many cases to below 500 pg/mL.

[3] = system: dermatitis (contact and ectopic) patients; assay: Double blind study of oral 24-OH-D2 formulation in dermatitis (contact and ectopic); type: in vivo, human; conditions: daily oral 10.0 to 20.0 μg, four to six weeks
Protocol: An oral dosage formulation containing 24-OH-D2 is evaluated in a double blind study for therapeutic efficacy of the formulation in the treatment of dermatitis (contact and ectopic). The formulation evaluated contains 10.0 to 20.0 μg of 24-OH-D2. […] The patients are treated in an outpatient clinic and are divided into an experimental and control population. They are instructed to take the medication once a day, in the morning before breakfast.
In each patient (experimental and control) an area of the skin containing a lesion is selected which is ordinarily covered by clothing, and the patients are instructed not to expose the skin area selected for study to sunlight. The area of the lesion is estimated and recorded, and the lesion(s) is photographed. Relevant details of the photographic procedure are recorded so as to be reproduced when the lesions are next photographed (distance, aperture, angle, background, etc.).
Evaluations of erythema, scaling, and thickness are conducted at weekly intervals by a physician. The final evaluation is usually carried out at the end of four to six weeks of treatment.

[4] = In vivo generation of 1α,24-(OH)2-D2 in vitamin D-deficient rats (plasma metabolites by HPLC); conditions: vitamin D-deficient rats; oral or intraperitoneal supplementation; HPLC
Protocol: 24-OH-D2 was administered (either oral or intraperitoneal supplementation) to vitamin D-deficient rats. Lipid extracts of the plasma were prepared and the metabolites purified by the method of Horst et al. (Horst, R. L., Koszewski, N. J. and Reinhardt, T. A., Biochem., 29:578–82 (1990) and incorporated herein by reference) described below for synthesizing standard biological 1α,24-(OH)2D2.

[5] = system: patients with advanced androgen-independent prostate cancer; assay: Open-label two-phase study of oral 24-(OH)-D2 in prostate cancer; type: in vivo; conditions: for progression of metastatic disease (CAT scans, X-rays and bone scans): second phase, after one and two years
Description: Patients with advanced androgen-independent prostate cancer participate in an open-label study of 24-(OH)-D2. […] On admission to the study, patients begin a course of therapy with oral 24-(OH)-D2 lasting 26 weeks, while discontinuing any previous use of calcium supplements, vitamin D supplements, and vitamin D hormone replacement therapies. During treatment, the patients are monitored at regular intervals for: (1) hypercalcemia, hyperphosphatemia, hypercalciuria, hyperphosphaturia and other toxicity; (2) evidence of changes in the progression of metastatic disease; and (3) compliance with the prescribed test drug dosage.
The study is conducted in two phases. During the first phase, the maximal tolerated dosage (MTD) of daily oral 24-(OH)D2 is determined by administering progressively higher dosages to successive groups of patients. All doses are administered in the morning before breakfast. The first group of patients is treated with 25.0 μg of 24-(OH)D2. Subsequent groups of patients are treated with 50.0, 75.0 and 100.0 μg/day. Dosing is continued uninterrupted for the duration of the study unless serum calcium exceeds 11.6 mg/dL, or other toxicity of grade 3 or 4 is observed, in which case dosing is held in abeyance until resolution of the observed toxic effect(s) and then resumed at a level which has been decreased by 10.0 μg.
During the second phase, patients are treated with 24-(OH)D2 for 24 months at 0.5 and 1.0 times the MTD.

Compound: C=C1CC[C@H](O)C/C1=C/C=C1\CCC[C@]2(C)[C@@H]([C@H](C)/C=C/C(C)(O)C(C)C)CC[C@@H]12 (some centres unmarked) [24-OH-D2, 24-hydroxyvitamin D2]
- CTL activity versus vehicle control [1]: statistically significant reduction
- iPTH levels of the patients ([2]; after 11–12 weeks, baseline greater than 1000 pg/mL, 50 μg 3 times/week, titrated): below 1000 pg/mL
- iPTH levels, in many cases ([2]; after 11–12 weeks, in many cases): below 500 pg/mL
- episodes of hypercalcemia ([2]; during the study): few episodes of hypercalcemia
- degree of erythema, scaling, and thickness versus control patients [3]: significantly reduces
- metabolite isolated from plasma lipid extracts versus standard 1α,24-(OH)2D2 [4]: co-migrated on HPLC with the standard 1α,24-(OH)2D2
- MTD level relative to what can be achieved with 1α,25-(OH)2D3 ([5]; first phase): 10- to 50 fold
- circulating levels of 1α,25-(OH)2D3 ([5]; first phase): suppressed, often to undetectable levels
- levels of circulating 24-(OH)D2 versus dosage administered ([5]; in vivo): increase proportionately with the dosage administered
- maximum levels of circulating 24-(OH)D2 ([5]; in vivo): above 100 pg/mL
- serum and urine calcium ([5]; in vivo): elevated in a dose responsive manner
- progression of metastatic disease (CAT scans, X-rays and bone scans) ([5]; higher dosage (1.0 times the MTD)): stable disease and partial or complete remission in many patients
- progression of metastatic disease (CAT scans, X-rays and bone scans) ([5]; lower dosage (0.5 times the MTD)): stable disease or partial remission in many patients
- bone pain associated with metastatic disease ([5]; treated with the MTD for at least six months): significantly diminished
